According to PubChem BioAssay AID330 (DTP/NCI, 2004):
Where “and” joins values, the source holds several entries; their conditions need not be identical. Equal entries are not always repeated. Inconclusive results and toxic doses are left out. How the source made its calls: active means survival T/C of 150% or more; inactive means T/C below 125% in these data.

Test system: P388 leukemia ip, CD2F1 mice, survival T/C
Experiment: NCI In Vivo Anticancer Drug Screen. Data for tumor model P388 Leukemia (intraperitoneal) in CD2F1 (CDF1) mice
Settings: endpoint: median survival time, higher = longer survival
Summary of the method: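 Mice carrying the transplanted tumor received test compound or vehicle. Survival was recorded in each group, and the value is the treated-group measurement divided by that of the vehicle-treated control group.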

[1] = dose: 50.0 mg/kg/injection, schedule: Q01DX009 (ip), vehicle: Klucel (hydroxypropylcellulose) (HPC)
[2] = dose: 50.0 mg/kg/injection, schedule: Q01DX009 (ip), vehicle: suspension in saline
[3] = dose: 100.0 mg/kg/injection, schedule: Q01DX009 (ip), vehicle: Klucel (hydroxypropylcellulose) (HPC)
[4] = dose: 100.0 mg/kg/injection, schedule: Q01DX009 (ip), vehicle: suspension in saline
[5] = dose: 200.0 mg/kg/injection, schedule: Q01DX009 (ip), vehicle: Klucel (hydroxypropylcellulose) (HPC)
[6] = dose: 200.0 mg/kg/injection, schedule: Q01DX009 (ip), vehicle: suspension in saline
[7] = dose: 50.0 mg/kg/injection, schedule: Q01DX005 (ip), vehicle: saline with Tween-80
[8] = dose: 100.0 mg/kg/injection, schedule: Q01DX005 (ip), vehicle: saline with Tween-80
[9] = dose: 200.0 mg/kg/injection, schedule: Q01DX005 (ip), vehicle: saline with Tween-80
[10] = dose: 60.0 mg/kg/injection, schedule: Q01DX005 (ip), vehicle: saline with Tween-80
[11] = dose: 120.0 mg/kg/injection, schedule: Q01DX005 (ip), vehicle: saline with Tween-80
[12] = dose: 240.0 mg/kg/injection, schedule: Q01DX005 (ip), vehicle: saline with Tween-80
[13] = dose: 50.0 mg/kg/injection, schedule: Q01DX009 (ip), vehicle: saline
[14] = dose: 100.0 mg/kg/injection, schedule: Q01DX009 (ip), vehicle: saline
[15] = dose: 200.0 mg/kg/injection, schedule: Q01DX009 (ip), vehicle: saline

Measured: T/C

Cc1ccc(NC(=S)SCc2ccc(Cl)c(Cl)c2)cc1C
inactive: [1] 116 % of control | [2] 96 % of control | [3] 113 % of control | [4] 100 % of control | [5] 109 % of control | [6] 101 % of control

Cn1c(N)c(C(=O)/C=C/c2ccccc2)c(=O)[nH]c1=O
inactive: dose: 50.0 mg/kg/injection, schedule: Q01DX005 (ip), vehicle: Klucel (hydroxypropylcellulose) (HPC) 95 % of control | dose: 100.0 mg/kg/injection, schedule: Q01DX005 (ip), vehicle: Klucel (hydroxypropylcellulose) (HPC) 88 % of control | dose: 200.0 mg/kg/injection, schedule: Q01DX005 (ip), vehicle: Klucel (hydroxypropylcellulose) (HPC) 88 % of control

CNC(=O)OCc1ccccc1-c1ccccc1
inactive: dose: 50.0 mg/kg/injection, schedule: Q01DX009 (ip), vehicle: saline with Tween-80 98 % of control | dose: 100.0 mg/kg/injection, schedule: Q01DX009 (ip), vehicle: saline with Tween-80 97 % of control | dose: 200.0 mg/kg/injection, schedule: Q01DX009 (ip), vehicle: saline with Tween-80 95 % of control

COc1cccc2c1C(=O)c1c(O)c3c(c(O)c1C2=O)CC(=O)CC3OC1CC(NC(=O)C(F)(F)F)C(O)C(C)O1 (configuration not stated)
inactive: dose: 1.56 mg/kg/injection, schedule: Q01DX009 (ip), vehicle: other 104 % of control | dose: 3.13 mg/kg/injection, schedule: Q01DX009 (ip), vehicle: other 102 % of control | dose: 6.25 mg/kg/injection, schedule: Q01DX009 (ip), vehicle: other 98 % of control | dose: 12.5 mg/kg/injection, schedule: Q01DX009 (ip), vehicle: other 90 % of control

CC(=O)C(CSC(=O)c1ccccc1)C(C)=O
inactive: dose: 100.0 mg/kg/injection, schedule: Q04DX002 (ip), vehicle: Klucel (hydroxypropylcellulose) (HPC) 100 % of control | dose: 200.0 mg/kg/injection, schedule: Q04DX002 (ip), vehicle: Klucel (hydroxypropylcellulose) (HPC) 100 % of control

COc1cc2c(c(OC)c1OC)-c1ccc(OC)c(=O)cc1[C@@H](N(C)C)CC2
inactive: dose: 1.25 mg/kg/injection, schedule: Q01DX009 (ip), vehicle: Klucel (hydroxypropylcellulose) (HPC) 100 % of control | dose: 2.5 mg/kg/injection, schedule: Q01DX009 (ip), vehicle: Klucel (hydroxypropylcellulose) (HPC) 107 % of control | dose: 5.0 mg/kg/injection, schedule: Q01DX009 (ip), vehicle: Klucel (hydroxypropylcellulose) (HPC) 112 % of control and 117 % of control | dose: 10.0 mg/kg/injection, schedule: Q01DX009 (ip), vehicle: Klucel (hydroxypropylcellulose) (HPC) 118 % of control and 124 % of control

CS(=O)(=O)NCCSSCCNS(C)(=O)=O
inactive: [7] 106 % of control | [8] 103 % of control | [9] 112 % of control

COc1ccc(OC)c(C(O)P(=O)(c2ccccc2)c2ccccc2)c1 (configuration not stated)
inactive: [1] 98 % of control | [3] 93 % of control | [5] 93 % of control

CC1(C)CC2(CC(C)(C)N1O)NC(=O)OC2=O
inactive: [10] 97 % of control | [11] 97 % of control | [12] 106 % of control

Cc1cccc(Nc2c(C(=O)O)cnc3cc4c(cc23)OCO4)c1C
inactive: dose: 30.0 mg/kg/injection, schedule: Q01DX005 (ip), vehicle: Klucel (hydroxypropylcellulose) (HPC) 94 % of control | dose: 60.0 mg/kg/injection, schedule: Q01DX005 (ip), vehicle: Klucel (hydroxypropylcellulose) (HPC) 96 % of control | dose: 120.0 mg/kg/injection, schedule: Q01DX005 (ip), vehicle: Klucel (hydroxypropylcellulose) (HPC) 99 % of control and 103 % of control | dose: 240.0 mg/kg/injection, schedule: Q01DX005 (ip), vehicle: Klucel (hydroxypropylcellulose) (HPC) 111 % of control

O=C1CCC(=O)N1CO
inactive: dose: 37.5 mg/kg/injection, schedule: Q01DX009 (ip), vehicle: saline with Tween-80 107 % of control | dose: 75.0 mg/kg/injection, schedule: Q01DX009 (ip), vehicle: saline with Tween-80 120 % of control

Cc1ccc(S(=O)(=O)NC(CSCc2ccccc2)C(=O)O)cc1 (configuration not stated)
inactive: dose: 100.0 mg/kg/injection, schedule: Q04DX003 (ip), vehicle: saline with Tween-80 100 % of control | dose: 200.0 mg/kg/injection, schedule: Q04DX003 (ip), vehicle: saline with Tween-80 100 % of control | dose: 400.0 mg/kg/injection, schedule: Q04DX003 (ip), vehicle: saline with Tween-80 100 % of control

CCOC(=O)Cc1csc(=S)n1C
inactive: [7] 102 % of control | [8] 109 % of control | [9] 109 % of control

Cc1cc2c(=O)c(C(=O)O)c[nH]c2cc1-n1cccc1
inactive: [10] 97 % of control | [11] 100 % of control | [12] 102 % of control

Cc1ccc2sc(-c3ccccc3)c(CCl)c(=O)c2c1
inactive: dose: 100.0 mg/kg/injection, schedule: Q04DX002 (ip), vehicle: saline with Tween-80 102 % of control | dose: 200.0 mg/kg/injection, schedule: Q04DX002 (ip), vehicle: saline with Tween-80 108 % of control | dose: 400.0 mg/kg/injection, schedule: Q04DX002 (ip), vehicle: saline with Tween-80 108 % of control

COc1ccc(CSC(=S)Nc2ccc(Cl)c([N+](=O)[O-])c2)cc1
inactive: [2] 108 % of control | [4] 99 % of control | [6] 99 % of control

CCN(CC)CCSCCNc1cc(OC)cc2cccnc12
inactive: dose: 12.5 mg/kg/injection, schedule: Q01DX005 (ip), vehicle: saline 101 % of control | dose: 25.0 mg/kg/injection, schedule: Q01DX005 (ip), vehicle: saline 101 % of control | dose: 50.0 mg/kg/injection, schedule: Q01DX005 (ip), vehicle: saline 89 % of control and 97 % of control

O=C(NC(=O)c1c(F)cccc1F)Nc1ccc(Cl)nc1
inactive: dose: 3.13 mg/kg/injection, schedule: Q01DX009 (ip), vehicle: saline with Tween-80 105 % of control | dose: 6.25 mg/kg/injection, schedule: Q01DX009 (ip), vehicle: saline with Tween-80 100 % of control | dose: 12.5 mg/kg/injection, schedule: Q01DX009 (ip), vehicle: saline with Tween-80 102 % of control

CCOP(=O)(Cc1ccc(-c2nc3ccccc3o2)cc1)OCC
inactive: [13] 103 % of control | [14] 100 % of control | [15] 99 % of control

COC(=O)c1nc(NC#N)[nH]c(=O)c1CCCCCc1cnc(NC#N)nc1
inactive: [10] 100 % of control | [11] 100 % of control | [12] 97 % of control

CCCCCC[Se][Se]CCCCCC
inactive: dose: 3.12 mg/kg/injection, schedule: Q01DX005 (ip), vehicle: Klucel (hydroxypropylcellulose) (HPC) 98 % of control | dose: 6.25 mg/kg/injection, schedule: Q01DX005 (ip), vehicle: Klucel (hydroxypropylcellulose) (HPC) 97 % of control | dose: 12.5 mg/kg/injection, schedule: Q01DX005 (ip), vehicle: Klucel (hydroxypropylcellulose) (HPC) 106 % of control | dose: 25.0 mg/kg/injection, schedule: Q01DX005 (ip), vehicle: Klucel (hydroxypropylcellulose) (HPC) 104 % of control

O=c1c2ccccc2oc2nc3ccc(Cl)cc3n12
inactive: [7] 112 % of control | [8] 101 % of control | [9] 98 % of control

CC1(C)[C@@H]2CC[C@H](OC(=O)/C=C/c3ccccc3)[C@@H]2[C@@H]2CC[C@H]3O[C@]321
inactive: dose: 80.0 mg/kg/injection, schedule: Q01DX001 (ip), vehicle: Klucel (hydroxypropylcellulose) (HPC) 109 % of control | dose: 160.0 mg/kg/injection, schedule: Q01DX001 (ip), vehicle: Klucel (hydroxypropylcellulose) (HPC) 102 % of control | dose: 320.0 mg/kg/injection, schedule: Q01DX001 (ip), vehicle: Klucel (hydroxypropylcellulose) (HPC) 100 % of control

CC1OC(Nc2ncnc3nc[nH]c23)C(O)C(O)C1NC(=O)CNC(=O)CCCCCCCCC/C=C\C(C)(C)C (configuration not stated)
inactive: dose: 0.25 mg/kg/injection, schedule: Q01DX009 (ip), vehicle: distilled water + Tween-80 113 % of control | dose: 0.5 mg/kg/injection, schedule: Q01DX009 (ip), vehicle: distilled water + Tween-80 113 % of control and 123 % of control | dose: 4.0 mg/kg/injection, schedule: Q01DX009 (ip), vehicle: distilled water + Tween-80 100 % of control

CCOC(=O)C1=C(C(C)=O)C(c2ccc(OC)c(OC)c2)C(C(C)=O)=C(C(=O)OCC)N1
inactive: dose: 60.0 mg/kg/injection, schedule: Q01DX005 (ip), vehicle: saline 102 % of control | dose: 120.0 mg/kg/injection, schedule: Q01DX005 (ip), vehicle: saline 100 % of control

C#CCN(CC#C)S(=O)(=O)c1ccc(C)cc1
inactive: [13] 104 % of control | [14] 108 % of control | [15] 108 % of control
